These results are taken from patent US20150225454A1, “TETRABRANCHED PEPTIDES AND ANALOGUES AS A NEW CLASS OF ANTIMICROBIALS AND THEIR PREPARATION THEREOF” (priority 2012, published 2015).

In brackets after ≈: the same amount, converted by molar mass. Read-outs that look alike come from different tables or passages of the source. Where a SMILES comes first, the peptide text is derived from it. Bridges are numbered along the chain shown (N, C = ends). Roman numbers before positions name the chains, in order.

For data set [1], the system named is S. cerevisiae. It is filed as cell-based. Here is the method:
A few identical colonies from WT and mutant strains were immediately inoculated and grown overnight in SD broth containing 0.1 mg/ml ampicilin at 30° C. Cells were harvested by centrifugation, washed with sterile water and frozen. Cells were plated again on SD agar plates and incubated at 37° C. for 48 h. Two or three identical colonies of the mutant strains were collected and inoculated in SD broth. Peptides were dissolved in sterile water and mixed with WT and mutant strains and incubated at 37° C. for 48 or 72 h in a test tube. The lowest concentration of the peptide that inhibited the growth of the yeast strain was determined by visual inspection.

Data set [2] relates to C. albicans. Kind of data set: Cell viability assay under diS-C3-5 assay conditions. The data set is classed as cell-based. The settings on record: concentration exceeding 4×MIC. The protocol: To verify if the dissipation of membrane potential is linked to candidacidal activity, a cell viability assay was performed under identical conditions.
Data set [3] is described as follows: Calcein release from fungal model membrane SUVs. The settings on record: peptide:lipid ratio 1:30 and 1:15. The protocol: For the preparation of PC/PE/PI or PS/Erg SUV, the lipids were dissolved in chloroform/methanol (2:1, v/v) in a glass tube. Ergosterol was dissolved in same solvent and added to lipid mixture to make final ergosterol content of 15 wt %. The Lipid-ergosterol mixture was dried using nitrogen gas to form lipid layer. The film was hydrated in a buffer containing 20 mM PBS (pH 7), vortexed and sonicated. Each cycle of sonication (5 sec, 40° C.) is followed by freezing in liquid nitrogen and thawing on a water bath kept at 37° C. The procedure was repeated 5-6 times until an optically clear dispersion appeared. The SUV was divided into two parts. To the first part 50 mM calcein was added and incubated for 1 h. The excess calcein was removed by injecting 100 μL of the calcein-loaded SUV's into a Ultrahydrogel™ 250 (7.8 mm×300 mm) column equilibrated with 20 mM PBS (pH 7.0) and eluted isochratically at a flow rate of 1 ml/min for 1.5 column volumes. The calcein-loaded liposomes were mixed with calcein-free liposome (1:1) to adjust final liposome concentration. Peptide concentration was added to obtain 1:30 or 1:15 peptide:liposome ratio. Changes in the fluorescence signal after addition of peptide or Triton X-100 was measured on a PTI spectrofluorometer, using an excitation wavelength of 480 nm and emission wavelength of 512 nm. The Percentage calcein released at each time point was calculated using the equation: […]
Similar protocol was followed for the preparation of PC/Cholesterol SUVs.

The test system of data set [4] is C. albicans (ATCC 10231). Briefly: SYTOX Green (SG) uptake assay. It is filed as cell-based.
Data set [5] has as its system C. albicans. Briefly: Measurement of extracellular cations (ICP-OES). It is filed as cell-based. The protocol: Overnight cultured late logarithmic phase C. albicans was harvested by centrifugation, washed 5 times with 10 mM HEPES (pH 7.0), resuspended in the same buffer and adjusted to an OD600=0.4. To 5 ml of this suspension, B4010 (final concentration 5.5 μM) was added and incubated at 37° C. for 2 h. The mixture was centrifuged at 3,000 g and the presence of K^+, Ca^2+ and Mg^2+ in the supernatant was estimated by Perkin Elmer Dual-view Optima 5300 DV inductively coupled plasma-optical emission spectrometry (ICP-OCS Massachusetts, USA) available at CMMAC facilities (Department of Chemistry, National University of Singapore).

Data set [6] concerns C. albicans. The data set is classed as cell-based. The settings on record: 50% tear fluid. The protocol:
For all the experiments, unless otherwise stated, ATCC 10231 strain was used. B4010 (1 mg/ml) was incubated with trypsin (enzyme:peptide ratio 1:100) at 37° C. 20 μL aliquot of this mixture was withdrawn at various time intervals (0.5, 1, 2, 4 and 6 h) and mixed with 1 μL of trypsin inhibitor. The antifungal activity of the peptide was determined by adding this mixture to 180 μl of inoculum and monitoring the growth at OD600 for 24 h. Similar experiments performed in the presence of trypsin/trypsin inhibitor (without B4010) were used as a positive control. For assessing the antifungal activity in tear fluid (TF), the peptide was dissolved in freshly collected rabbit TF and incubated at 37° C. for 6 h. After incubation, an equal volume of an overnight culture of C. albicans (˜10^6 CFU/ml) was mixed with peptides in tear fluid and incubated at 37° C. for 24 h. The final concentrations of the peptide were at 4.4, 8.8 and 22 μM. A 100 μL aliquot of serial dilutions (10^2 or 10^3 times) of this mixture were inoculated on a SD agar plate and then incubated for 48 h at 37° C. Culture alone and culture with 50% tear fluid served as the positive control. The data was expressed in % killing with respect to culture without tear fluid.

A short description of data set [7]: Acute in vivo toxicity in mice. Further details: species or system C57BL6 mice. Here is the method: Acute toxicity of B4010 was assessed with C57BL6 (6-8 weeks old) wild type mice. Two healthy wild type mice were chosen for each route of administration. B4010 was delivered through intra-peritoneal (200 mg/kg) or (100 mg/kg) intra-venous routes. Two animals were used for each administration and monitored through 24/48 h to determine mortality, or signs of toxicity.

One may read the MIC as the lowest concentration found to suppress growth. Low values mean greater potency, high ones weaker potency.

Turning to `CC(C)[C@H](NC(=O)[C@H](CCCCN)NC(=O)[C@H](CCCNC(=N)N)NC(=O)CNC(=O)[C@@H](N)CCCNC(=N)N)C(=O)N[C@H](C(=O)N[C@@H](CCCNC(=N)N)C(=O)N[C@@H](CCCNC(=N)N)C(=O)NCCCC[C@H](NC(=O)[C@H](CCCNC(=N)N)NC(=O)[C@H](CCCNC(=N)N)NC(=O)[C@@H](NC(=O)[C@@H](NC(=O)[C@H](CCCCN)NC(=O)[C@H](CCCNC(=N)N)NC(=O)CNC(=O)[C@@H](N)CCCNC(=N)N)C(C)C)C(C)C)C(=O)NCCCC[C@H](NC(=O)[C@H](CCCCNC(=O)[C@H](CCCNC(=N)N)NC(=O)[C@H](CCCNC(=N)N)NC(=O)[C@@H](NC(=O)[C@@H](NC(=O)[C@H](CCCCN)NC(=O)[C@H](CCCNC(=N)N)NC(=O)CNC(=O)[C@@H](N)CCCNC(=N)N)C(C)C)C(C)C)NC(=O)[C@H](CCCNC(=N)N)NC(=O)[C@H](CCCNC(=N)N)NC(=O)[C@@H](NC(=O)[C@@H](NC(=O)[C@H](CCCCN)NC(=O)[C@H](CCCNC(=N)N)NC(=O)CNC(=O)[C@@H](N)CCCNC(=N)N)C(C)C)C(C)C)C(=O)N[C@@H](CCCCN)C(=O)O)C(C)C` [Peptide B4010] (I: H-RGRKVVRRKKK-OH / II: H-RGRKVVRRK / III: H-RGRKVVRR / IV: H-RGRKVVRR; amide I:9-IV:C, I:10-II:C, II:9-III:C; N-terminus and C-terminus assumed), the MIC is 5.5 µM (≈ 25.1 µg/mL) in data set [1] (RH448, Wildtype, Ergosterol (77%)); 2.8 µM (≈ 12.8 µg/mL) in data set [1] (RH5684, erg6Δ); 1.4 µM (≈ 6.39 µg/mL) in data set [1] (RH5812, erg2Δ); 1.4 µM (≈ 6.39 µg/mL) in data set [1] (RH5930, erg3Δerg6Δ); 2.8 µM (≈ 12.8 µg/mL) in data set [1] (RH6826, 7-deoxycholesterol); 2.8 µM (≈ 12.8 µg/mL) in data set [1] (RH6827, Campasterol). The compound further had a minimal inhibitory concentration (MIC) in data set [1] (RH6829, Cholesterol) of 2.8 µM (≈ 12.8 µg/mL). The “decrease in MIC of ergΔ mutants compared to the wild type” value in data set [1] (all the ergΔ mutants) is listed as 2-4 fold. In data set [1] (erg2Δ, erg3Δ, erg3Δerg6Δ and erg4Δerg5Δ), the “decrease in MIC compared to the wild type” value turned out to be 4 folds. Further, the “increased sensitivity compared to the wild type” value in data set [1] (erg2Δerg6Δ and erg6Δ) was 2 fold. Besides, in data set [2], the cell viability entry is recorded as “complete loss of viability”. Moreover, the calcein release result in data set [3] is “about 68%”. For the same compound, the “SG uptake (permeation)” value came out at 24% in data set [4] (1×MIC) and 13% in data set [4] (½×MIC). Further, the cells membrane compromised result in data set [4] (2×MIC, 10 mins) is recorded as “About 70%”. In data set [4] (4×MIC, within 25 mins), this compound showed a dye uptake greater than 90%. In data set [5], the “increase in K+- and Ca2+-ions” value is on record as 2 fold. Besides, the “calcium concentration in supernatant” value in data set [5] (5.5 μM, 2 h) was 5.8 ± 1.3 µM. In data set [5] (5.5 μM, 2 h), the “levels of Na+ and Mg2+ ions” value is given as “no significant changes”. Further, the “potassium concentration in supernatant” value in data set [5] (5.5 μM, 2 h) was found to be 104 ± 4.2 µM. Moreover, the candidacidal activity result in data set [6] (22 μM) is recorded as “no loss of activity”; in data set [6] (4.4 and 8.8 μM), “moderately suppressed”. In addition, the “mortality, morbidity or toxicity” value in data set [7] (IP 200 mg/kg) is listed as “no sign of mortality, morbidity or toxicity”; in data set [7] (IV 100 mg/kg), “no sign of mortality, morbidity or toxicity”.
